Targets include Carbonic anhydrase 13 (Mus musculus, UniProt Q9D6N1); Carbonic anhydrase V (Homo sapiens, UniProt Q9Y2D0+P35218); Carbonic anhydrase 1 (Homo sapiens, UniProt P00915).

Carbonic anhydrase 13, sequence (Q9D6N1 whole entry): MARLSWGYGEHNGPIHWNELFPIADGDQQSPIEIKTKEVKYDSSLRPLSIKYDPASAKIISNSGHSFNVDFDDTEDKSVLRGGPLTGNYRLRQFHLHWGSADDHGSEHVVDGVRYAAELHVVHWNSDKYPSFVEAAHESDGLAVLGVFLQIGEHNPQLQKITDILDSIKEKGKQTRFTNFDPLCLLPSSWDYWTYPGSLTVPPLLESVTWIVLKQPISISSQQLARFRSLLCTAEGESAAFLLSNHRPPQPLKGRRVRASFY
Carbonic anhydrase 1, sequence (P00915 whole entry): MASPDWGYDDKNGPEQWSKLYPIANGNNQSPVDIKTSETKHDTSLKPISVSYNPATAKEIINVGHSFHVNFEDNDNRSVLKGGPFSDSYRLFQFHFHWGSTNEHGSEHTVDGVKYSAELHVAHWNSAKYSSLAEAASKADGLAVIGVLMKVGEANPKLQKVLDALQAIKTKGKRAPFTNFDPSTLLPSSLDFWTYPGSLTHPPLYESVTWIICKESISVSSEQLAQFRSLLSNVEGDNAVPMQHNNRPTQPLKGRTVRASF
Description for Carbonic anhydrase 13: Inhibitory activity against mouse carbonic anhydrase XIII expressed in Escherichia coli TOP 10
Description for Carbonic anhydrase V: Inhibitory activity against human carbonic anhydrase V expressed in Escherichia coli

By Ki is commonly meant a dissociation constant, usually derived from enzyme kinetics or from competition with a known ligand. At Carbonic anhydrase 13, `Br` [BROMIDE] displayed a Ki of 45 mM. On the same count and under the same terms, to `N#CO` [CYANATE] belongs 0.00025 mM.

Compound `F` [FLUORIDE ION] registered a Ki on Carbonic anhydrase 13 of 3 mM.

As to `Cl` [HYDROCHLORIC ACID], the Ki at Carbonic anhydrase 13 worked out at 138 mM; at Carbonic anhydrase V, 156 mM. The like results for `S` [HYDROGEN SULFIDE] were, in that order, 5.2 mM and 0.02 mM. The like results for `I` [IODIDE] were, in that order, 5.4 mM and 25 mM. Take `O=[N+]([O-])O` [NITRIC ACID]: the Ki on Carbonic anhydrase 13 is 36 mM; on Carbonic anhydrase V it was 16 mM. `O=NO` [NITROUS ACID]: at Carbonic anhydrase 13, the Ki came to 12.6 mM. As for `OB(O)c1ccccc1` [PHENYLBORONIC ACID], the figures for the Ki on Carbonic anhydrase 13 and on Carbonic anhydrase V were 2.85 mM and 4.51 mM, respectively. As to `NS(=O)(=O)O` [SULFAMATE], the Ki at Carbonic anhydrase 13 is 21.5 mM; at Carbonic anhydrase V, 0.12 mM.

At Carbonic anhydrase 13, `NS(N)(=O)=O` [SULFAMIDE] registered a Ki of 0.14 mM. Take `O=S(=O)(O)O` [SULFURIC ACID]: the figures for the Ki at Carbonic anhydrase 13 and on Carbonic anhydrase V were 267 mM and 680 mM, respectively.

Take `O=S(O)O` [SULFUROUS ACID]: the inhibitory constant (Ki) on Carbonic anhydrase 13 came to 75.5 mM; on Carbonic anhydrase 1 it was 18 mM. Take `N#CS` [THIOCYANIC ACID]: at Carbonic anhydrase 13, the Ki was determined as 0.74 mM.

The record behind these values is ChEMBL document CHEMBL1138690, “Carbonic anhydrase inhibitors. Inhibition of the newly isolated murine isozyme XIII with anions” (Bioorg Med Chem Lett, 2004).
